# Test results as given in patent publication US7432369B2, “Pyridyl-substituted porphyrin compounds and methods of use thereof” (Inotek Pharmaceuticals Corporation, priority 2004, dated 2008).
# Assays:
# [1] = tested on: rats subjected to hemorrhagic shock; assay: Hemorrhagic shock and resuscitation; format: in vivo, rat; settings: 6 mg/kg i.v., 5 minutes prior to resuscitation
# Protocol: Rats were subjected to 2 hours of hemorrhage, followed by resuscitation as previously described in O. V. Evgenov et al., Crit Care Med., October 2003;31(10):2429-36. Compound 3 was administered at a dose of 6 mg/kg i.v., 5 minutes prior to resuscitation. […] To obtain the results shown in FIG. 7, rats were bled to reach mean BP of 40 mm Hg. This mean BP was maintained for 2 hours, followed by resuscitation with saline at a volume of 2× the shed blood volume. Rats were then observed for 3 hours, and the survival time was recorded. Compound 3 (6 mg/kg) was administered intravenously before the start of resuscitation. To obtain the results shown in FIG. 8, left intraventricular systolic pressure (LVSP), dP/dt, -dP/dt were monitored continuously for 20 minutes from 40 minutes after resuscitation. Compound 3 (6 mg/kg) was administered intravenously before the start of resuscitation. To obtain the results shown in FIG. 9, blood was taken 1 hour after resuscitation. Compound 3 (6 mg/kg) was administered intravenously before the start of resuscitation. To obtain the results shown in FIG. 10, blood was taken at 1 hour after resuscitation. Compound 3 (6 mg/kg) was administered intravenously before the start of resuscitation.
# [2] = tested on: rats subjected to balloon-induced vascular injury; assay: Balloon-induced vascular injury of the carotid artery; format: in vivo, rat; settings: 1 mg/kg bid
# Description: Rats were subjected to balloon-induced vascular injury of the carotid artery as previously described in C. Zhang et al., Am J Physiol Heart Circ Physiol., August 2004;287(2):H659-66.
# [3] = tested on: rats subjected to myocardial infarction; assay: Myocardial infarction by occlusion and reperfusion of the left anterior descending coronary artery; format: in vivo, rat; settings: 5 minutes prior to reperfusion
# Protocol: Rats were subjected to myocardial infarction by occlusion and reperfusion of the left anterior descending coronary artery as previously described in C. Y. Xiao et al., J Pharmacol Exp Ther., August 2004;310(2):498-504. Compound 3 was administered at doses of 1, 3, or 6 mg/kg i.v., 5 minutes prior to reperfusion.
# [4] = tested on: mice subjected to streptozocin diabetes; assay: Multiple low dose streptozocin diabetes; format: in vivo; settings: 3 or 10 mg/kg/day ip
# Description: Mice were subjected to multiple low dose streptozocin diabetes as previously described in J. G. Mabley et al., Br J Pharmacol., July 2001;133(6):909-19.
# [5] = tested on: RAW murine macrophages; assay: Oxidant or free-radical damage, cell viability (mitochondrial respiration); format: cell-based; settings: RAW cells treated with oxidants and free radicals
# Protocol: (§1) The four right-hand most bar graphs represent cytotoxin plus […] of Compound 3.
# (§2) A549 human epithelial cells and RAW murine macrophages were grown and cultured, then treated with oxidants and free radicals in the presence or absence of varying concentrations of Compound 3 according to the method of C. Szabo et al., Mol Med., October 2002;8(10):571-80. […] Protection is by 3-100 μM of Compound 3.
# [6] = tested on: A549 human epithelial cells; assay: as above; format: cell-based; settings: A549 cells treated with oxidants and free radicals
# Protocol: as §1, §2
# [7] = tested on: rats subjected to heterotopic heart transplantation; assay: Heterotopic heart transplantation; format: in vivo, rat; settings: 10 mg/kg/day orally
# Protocol: Rats were subjected to heterotopic heart transplantation as described previously in H. Jiang et al., Transplantation, Jun. 15, 2002;73(11):1808-17. Compound 3 was administered at a dose of 10 mg/kg/day orally.
# [8] = tested on: mice subjected to heart failure; assay: Heart failure induced by aortic banding; format: in vivo; settings: 3 mg/kg/day orally
# Protocol: Mice were subjected to heart failure induced by aortic banding as previously described in C. Y. Xiao et al., J Pharmacol Exp Ther., March 2005;312(3):891-8. Compound 3 was administered at a dose of 3 mg/kg/day orally.
structure (smiles),measurement,setting,value
O=C([O-])c1ccc(C[n+]2ccccc2/C2=C3\C=CC(=N3)/C(c3cccc[n+]3Cc3ccc(C(=O)[O-])cc3)=c3/cc/c4[n]3[Fe]([Cl])[n]3c2ccc3/C(c2cccc[n+]2Cc2ccc(C(=O)[O-])cc2)=C2/C=CC(=N2)\C=4c2cccc[n+]2Cc2ccc(C(=O)[O-])cc2)cc1 [Compound 3],blood pressure,[1],effective for stabilizing blood pressure
same,plasma levels of ALT,[1],reduced
same,plasma levels of creatine kinase,[1],reduced plasma levels of creatine kinase
same,survival rate,[1],increasing survival rate
same,degree of intimal hypertrophy,[2],reduced the degree of intimal hypertrophy
same,development of endothelial dysfunction,[2],prevented the development of endothelial dysfunction
same,loss of endothelium-dependent relaxations on the injured side,[2]; FIG. 13,completely prevented this loss of the endothelial function
same,plasma levels of creatine kinase,[3]; 6 mg/kg i.v.,reduced plasma levels of creatine kinase
same,protective effect,[3]; 6 mg/kg i.v.,significant protective effect
same,infarct size,"[3]; 1, 3, or 6 mg/kg i.v.",effective for reducing infarct size
same,development of hyperglycemia,[4],prevented the development of hyperglycemia
same,pancreatic insulin content,[4],normalized pancreatic insulin content
same,concentration giving protection,[5],3 to 100 µM
same,protection against the suppression of cell viability,[5],dose-dependently protected
same,concentration giving protection,[6],3 to 100 µM
same,protection against the suppression of cell viability,[6],dose-dependently protected
same,degree of myocardial hypertrophy,[7],reduced the degree of myocardial hypertrophy
same,degree of myocardial hypertrophy,[8],reduced the degree of myocardial hypertrophy
